Like-named read-outs stand apart in the source and are kept apart here. Ends that are not written are not given here.

Here are results for 5 compounds from patent US20110281744A1, “METHOD OF IDENTIFYING COMPOUNDS THAT MODULATE REGULATION OF IRON RESPONSE ELEMENTS” (priority 2007, published 2011).

One assay has as its system iron uptake. Particulars: through reduction in IRE(+) DMT1 mRNA; cited from earlier work.
Another assay deals with DMT1. Particulars: cited from earlier work.
The subject of the next assay is melanoma cells. Particulars: cited from earlier work.
Assay [1] deals with TfR. Particulars: melanoma cells; cited from earlier work.
Another assay deals with ferritin mRNA. Put plainly: Polysome analysis with northern blot: ferritin mRNA translation in treated cultured cells. The class given is cell-based. Particulars: cells treated overnight with iron or iron plus desferal; FIG. 1B right panel. As to the method: (§1) FIG. 1A top panel is a graph showing polysome analysis with optical density as a function of percent sucrose. Total RNA is isolated from cultured cells by lysing the cells in polysome extraction buffer (15 mM Tris, pH 7.6, 0.3 M NaCl, 15 mM MgCl2 and 1% Triton X-100) containing 100 ng/ml cyclohexamide and 1 mg/ml heparin. The lysates are then layered onto a 10-50% sucrose gradient and centrifuged at 38,000 rpm for 2 hrs. The gradients are fractionated by monitoring UV absorbance at 254 nm.
(§2) FIG. 1A bottom panel is a northern blot showing Actin and Ferratin RNA. RNA was isolated from each fraction using RNeasy 96 Universal Tissue Kit (Qiagen) then loaded on a agarose gel and subjected to northern analysis with the appropriate probe. The high molecular weight fractions (6-12) represent those for which protein synthesis is occurring.
(§3) FIG. 1B are northern blots showing the indicated RNA. Cells were treated overnight with either iron oriron plus desferal to chelate iron and RNA was isolated and analyzed as described above.

Another assay has as its system actin mRNA. The assay can be described thus: Polysome analysis with northern blot: actin mRNA translation in treated cultured cells (control). The format is cell-based. Particulars: cells treated overnight with iron or iron plus desferal; FIG. 1B left panel. As to the method:
as §1, §2, §3

The next assay has as its system ferritin. Particulars: curcumin treatment; cited from earlier work.
For assay [2], the system named is TfR. Particulars: curcumin treatment; cited from earlier work.
The next assay has as its system IRP. Particulars: curcumin treatment; cited from earlier work.

With “hepcidin (DTHFPICIFCCGCCHRSKCGMCCKT; ends and bridges not checked; cysteine pairing not given here; UniProt P81172 60-84, looked up) [a naturally occurring peptide]”, the iron uptake entry in the assay with iron uptake is “significantly reduce iron uptake”. Also, the “DMT1 protein isoforms with or without IRE” value in the assay with DMT1 is “reduces DMT1 protein isoforms containing the IRE, but not those lacking the IRE”.

With `O=C1O[C@H]([C@@H](O)CO)C([O-])=C1O.[Na+]` [sodium ascorbate, Sodium ascorbate], in the assay with melanoma cells, the “cell death (apoptosis)” value was “apoptosis” and the intracellular iron result is given as “reduced intracellular iron”. Besides, the TfR level entry in the assay on TfR [1] is “reduction in TfR”.

Take `[Fe]` [iron]: the “effect on ferritin translation (polysome distribution of ferritin mRNA)” value with ferritin mRNA is given as “ferritin translation increases”. Also, the “effect on translation of actin mRNA” value in the assay with actin mRNA was “neither iron nor deseferal treatment had an effect”.

Take `COc1cc(/C=C/C(=O)CC(=O)/C=C/c2ccc(O)c(OC)c2)ccc1O` [curcumin, Curcumin]: the ferritin level result in the assay with ferritin is “decrease in ferritin”. Further, the TfR level result in the assay on TfR [2] is listed as “increase in TfR”. The IRP activation entry in the assay on IRP is on record as “increased IRP activation”.

As to `CC(=O)N(O)CCCCCNC(=O)CCC(=O)N(O)CCCCCNC(=O)CCC(=O)N(O)CCCCCN` [desferal], the “effect on ferritin translation (polysome distribution of ferritin mRNA)” value in the assay on ferritin mRNA is “inhibits translation”. Besides, the “effect on translation of actin mRNA” value with actin mRNA is reported as “neither iron nor deseferal treatment had an effect”.
